{"source": "patent US6509380B1", "about": "“Method of treating iron overload with acetaminophen” (Marshall University Research Corporation, priority 2001, dated 2003)", "key": {"[1]": {"experiment": "Toxicity of acetaminophen in iron overloaded animals versus animals with normal iron levels", "assay_type": "in vivo", "conditions": "multiple tests, no details given", "from_the_text": "It was initially believed that acetaminophen would be more toxic in iron overloaded animals than in animals having normal iron levels."}, "iron-overloaded gerbils": {"system": "iron-overloaded gerbils", "experiment": "Iron-overload model in Mongolian gerbils (iron dextran ip), treatment with acetaminophen", "assay_type": "in vivo, Mongolian gerbil", "from_the_text": "Female Mongolian gerbils were divided into groups: positive iron control (iron injections given), iron-treated (injections of iron and acetaminophen), negative iron controls (no iron given), and treatment controls (injections of the investigational agent, only). Gerbils designated to receive iron were iron overloaded by a series of intraperitoneal (ip) injections of iron dextran during a two-month period of time. Treatments were initiated one month after completion of iron overloading and continued for one additional month.\nElectrocardiograms (ECGs) were done on gerbils in all four groups, two months and again three months after completion of iron overloading. Gerbils were autopsied five months after completion of iron overloading and resulting stained tissue slides were evaluated by light microscopy. Livers and whole hearts were obtained from gerbils in control and iron-overloaded groups and weighed. Whole hearts and weighed liver samples were acid digested and measured for total iron content."}}}
{"smiles": "CC(=O)Nc1ccc(O)cc1", "note": "[acetaminophen]", "values": [{"measurement": "toxicity in animals having an iron overload compared with animals having normal iron levels", "setting": "[1]", "result": "less toxic in animals having an iron overload than in animals having normal iron levels"}, {"measurement": "premature ventricular complexes (EKG findings)", "setting": "iron-overloaded gerbils; ECGs two and three months after completion of iron overloading, four of 10 untreated iron-overloaded gerbils (40%) showed them", "result": "not in animals from the other three groups"}, {"measurement": "iron-induced cardiac and hepatic hypertrophy (heart weights, heart/total body weight ratios, liver weights, liver/total body weight ratios)", "setting": "iron-overloaded gerbils; autopsies, weight data and histological evaluations", "result": "effectively combats iron-induced cardiac and hepatic hypertrophy"}, {"measurement": "reduction of cardiac iron (ICP-AES tissue iron measurement)", "setting": "iron-overloaded gerbils; iron-overloaded female gerbils, versus untreated iron-overloaded animals, almost entirely from cardiomyocytes, less from cardiac macrophages, P<0.005", "result": "over 40%"}, {"measurement": "reduction in liver iron (ICP-AES tissue iron measurement)", "setting": "iron-overloaded gerbils; iron-overloaded female gerbils, versus untreated iron-overloaded animals, not statistically significant", "result": 17, "unit": "%"}, {"measurement": "accumulations of iron in the bone marrow, proximal renal tubules, heart and numerous other organs and tissues", "setting": "iron-overloaded gerbils; stained tissue slides, light microscopy, less effect in the livers", "result": "greatly reduced accumulations of iron"}, {"measurement": "deaths", "setting": "iron-overloaded gerbils; within 5 months after iron overloading, eight of 20 untreated iron-overloaded gerbils died", "result": "No deaths"}]}
